Test results taken from PubChem BioAssay (NCI).
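How tested: cells in 96-well plates exposed to compound for 48 hours at five concentrations. TGI marks complete inhibition of growth.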

Columns and labels:
Assay in all cases: DTP human tumour cell line panel, 48 h
HT29 colon = test system: HT29 colon
786-0 renal = test system: 786-0 renal
SNB-78 CNS = test system: SNB-78 CNS
SF-539 CNS = test system: SF-539 CNS
HCT-116 colon = test system: HCT-116 colon
CAKI-1 renal = test system: CAKI-1 renal
LXFL 529 NSCLC = test system: LXFL 529 NSCLC
SW-620 colon = test system: SW-620 colon
SN12C renal = test system: SN12C renal
HL-60(TB) leukemia = test system: HL-60(TB) leukemia
HOP-18 NSCLC = test system: HOP-18 NSCLC
SK-MEL-5 melanoma = test system: SK-MEL-5 melanoma
DLD-1 colon = test system: DLD-1 colon
SNB-19 CNS = test system: SNB-19 CNS
EKVX NSCLC = test system: EKVX NSCLC
UACC-257 melanoma = test system: UACC-257 melanoma
TK-10 renal = test system: TK-10 renal
NCI-H23 lung = test system: NCI-H23 lung
HOP-62 NSCLC = test system: HOP-62 NSCLC
K-562 leukemia = test system: K-562 leukemia
SK-MEL-2 melanoma = test system: SK-MEL-2 melanoma
SF-295 CNS = test system: SF-295 CNS
DMS 273 small cell lung = test system: DMS 273 small cell lung
MOLT-4 leukemia = test system: MOLT-4 leukemia
SK-MEL-28 melanoma = test system: SK-MEL-28 melanoma
HCC-2998 colon = test system: HCC-2998 colon
DMS 114 small cell lung = test system: DMS 114 small cell lung
IGROV1 ovarian = test system: IGROV1 ovarian
HCT-15 colon = test system: HCT-15 colon
RPMI-8226 leukemia = test system: RPMI-8226 leukemia
SF-268 CNS = test system: SF-268 CNS
ACHN renal = test system: ACHN renal
XF 498 CNS = test system: XF 498 CNS
M14 melanoma = test system: M14 melanoma
OVCAR-8 ovarian = test system: OVCAR-8 ovarian
LOX IMVI melanoma = test system: LOX IMVI melanoma
OVCAR-5 ovarian = test system: OVCAR-5 ovarian
CCRF-CEM leukemia = test system: CCRF-CEM leukemia
KM20L2 colon = test system: KM20L2 colon
NCI-H226 lung = test system: NCI-H226 lung
OVCAR-4 ovarian = test system: OVCAR-4 ovarian
MALME-3M melanoma = test system: MALME-3M melanoma
KM12 colon = test system: KM12 colon
M19-MEL melanoma = test system: M19-MEL melanoma
UACC-62 melanoma = test system: UACC-62 melanoma
A549 NSCLC = test system: A549 NSCLC
A498 renal = test system: A498 renal
HOP-92 NSCLC = test system: HOP-92 NSCLC
UO-31 renal = test system: UO-31 renal
COLO 205 colon = test system: COLO 205 colon
NCI-H460 lung = test system: NCI-H460 lung
SNB-75 CNS = test system: SNB-75 CNS
OVCAR-3 ovarian = test system: OVCAR-3 ovarian
U251 CNS = test system: U251 CNS
SK-OV-3 ovarian = test system: SK-OV-3 ovarian
SR leukemia = test system: SR leukemia
RXF 393 renal = test system: RXF 393 renal

## CC(C)(C)C1CCC2c3c([nH]c4ccccc34)C3C(=O)N(c4ccc(Br)cc4)C(=O)C3C2C1 (centres undefined)
HT29 colon
  TGI: 44.3 µM
786-0 renal
  TGI: 37.3 µM
SNB-78 CNS
  TGI: > 100 µM
SF-539 CNS
  TGI: 38.7 µM
HCT-116 colon
  TGI: 91.9 µM
CAKI-1 renal
  TGI: 43.8 µM
LXFL 529 NSCLC
  TGI: 48.1 µM
SW-620 colon
  TGI: 49.4 µM
SN12C renal
  TGI: 27.6 µM
HL-60(TB) leukemia
  TGI: 29.5 µM
HOP-18 NSCLC
  TGI: > 100 µM
SK-MEL-5 melanoma
  TGI: 62.2 µM
DLD-1 colon
  TGI: > 100 µM
SNB-19 CNS
  TGI: 40 µM
EKVX NSCLC
  TGI: 63.2 µM
UACC-257 melanoma
  TGI: 50.2 µM
TK-10 renal
  TGI: 42 µM
NCI-H23 lung
  TGI: 38.1 µM
HOP-62 NSCLC
  TGI: 39.5 µM
K-562 leukemia
  TGI: 43.5 µM
SK-MEL-2 melanoma
  TGI: 54.6 µM
SF-295 CNS
  TGI: 63.1 µM
DMS 273 small cell lung
  TGI: 31.9 µM
MOLT-4 leukemia
  TGI: 26.2 µM
SK-MEL-28 melanoma
  TGI: > 100 µM
HCC-2998 colon
  TGI: 11.9 µM
DMS 114 small cell lung
  TGI: 41.6 µM
IGROV1 ovarian
  TGI: 48 µM
HCT-15 colon
  TGI: 36.3 µM
RPMI-8226 leukemia
  TGI: 38.6 µM
SF-268 CNS
  TGI: 49.8 µM
ACHN renal
  TGI: 35.7 µM
XF 498 CNS
  TGI: 76.2 µM
M14 melanoma
  TGI: > 100 µM
OVCAR-8 ovarian
  TGI: 42.9 µM
LOX IMVI melanoma
  TGI: 29.2 µM
OVCAR-5 ovarian
  TGI: 56.5 µM
CCRF-CEM leukemia
  TGI: 39.8 µM
KM20L2 colon
  TGI: 42.2 µM
NCI-H226 lung
  TGI: 36.1 µM
OVCAR-4 ovarian
  TGI: 41.5 µM
MALME-3M melanoma
  TGI: > 100 µM
KM12 colon
  TGI: 53.8 µM
M19-MEL melanoma
  TGI: 33.2 µM
UACC-62 melanoma
  TGI: > 100 µM
A549 NSCLC
  TGI: 47.5 µM
A498 renal
  TGI: 52.3 µM
HOP-92 NSCLC
  TGI: 49 µM
UO-31 renal
  TGI: 27.2 µM
COLO 205 colon
  TGI: 23.3 µM
NCI-H460 lung
  TGI: 38.9 µM
SNB-75 CNS
  TGI: 54.8 µM

## O=C1OC(=O)C2C3CCC(O3)C12 (centres undefined)
HT29 colon
  TGI: > 100 µM
786-0 renal
  TGI: > 100 µM
SNB-78 CNS
  TGI: > 100 µM
SF-539 CNS
  TGI: > 100 µM
HCT-116 colon
  TGI: > 100 µM
CAKI-1 renal
  TGI: > 100 µM
LXFL 529 NSCLC
  TGI: > 100 µM
SW-620 colon
  TGI: > 100 µM
SN12C renal
  TGI: > 100 µM
HL-60(TB) leukemia
  TGI: > 100 µM
HOP-18 NSCLC
  TGI: > 100 µM
SK-MEL-5 melanoma
  TGI: > 100 µM
DLD-1 colon
  TGI: > 100 µM
SNB-19 CNS
  TGI: > 100 µM
EKVX NSCLC
  TGI: > 100 µM
UACC-257 melanoma
  TGI: > 100 µM
TK-10 renal
  TGI: > 100 µM
NCI-H23 lung
  TGI: > 100 µM
HOP-62 NSCLC
  TGI: > 100 µM
K-562 leukemia
  TGI: > 100 µM
SK-MEL-2 melanoma
  TGI: > 100 µM
SF-295 CNS
  TGI: > 100 µM
OVCAR-3 ovarian
  TGI: > 100 µM
DMS 273 small cell lung
  TGI: > 100 µM
MOLT-4 leukemia
  TGI: > 100 µM
SK-MEL-28 melanoma
  TGI: > 100 µM
HCC-2998 colon
  TGI: > 100 µM
DMS 114 small cell lung
  TGI: > 100 µM
IGROV1 ovarian
  TGI: > 100 µM
RPMI-8226 leukemia
  TGI: > 100 µM
SF-268 CNS
  TGI: > 100 µM
ACHN renal
  TGI: > 100 µM
XF 498 CNS
  TGI: > 100 µM
M14 melanoma
  TGI: > 100 µM
OVCAR-8 ovarian
  TGI: > 100 µM
OVCAR-5 ovarian
  TGI: > 100 µM
U251 CNS
  TGI: > 100 µM
SK-OV-3 ovarian
  TGI: > 100 µM
SR leukemia
  TGI: > 100 µM
CCRF-CEM leukemia
  TGI: > 100 µM
NCI-H226 lung
  TGI: > 100 µM
MALME-3M melanoma
  TGI: > 100 µM
RXF 393 renal
  TGI: > 100 µM
KM12 colon
  TGI: > 100 µM
M19-MEL melanoma
  TGI: > 100 µM
UACC-62 melanoma
  TGI: > 100 µM
A549 NSCLC
  TGI: > 100 µM
A498 renal
  TGI: > 100 µM
HOP-92 NSCLC
  TGI: > 100 µM
UO-31 renal
  TGI: > 100 µM
COLO 205 colon
  TGI: > 100 µM
NCI-H460 lung
  TGI: > 100 µM
